Data from PubChem BioAssay AID2060611 (Molecular Pharmacology Branch, DTP, NCI, 2025).
Values joined by “and” are separate entries in the source; they are usually repeats but may differ in a detail not shown here. Equal entries are not always repeated.

Tested on: 628569-122-R-J1-PDC complex spheroid viability
Assay: Anticancer human tumor 628569-122-R-J1-PDC patient-derived head and neck squamous carcinoma cell line growth inhibition [CLK]
Conditions: for viability, T/C: stronger effect = lower value
From the text: A high-throughput screen of multi-cell type tumor spheroids was designed to identify active combinations of […] and targeted small molecules. Complex spheroids include a stromal component modeled by human endothelial cells (HUVEC) and fibroblasts modeled by human mesenchymal stem cells (MSCs). The concentration ranges selected for each drug and investigational agent were based upon clinically achievable concentrations if the clinical Cmax of the agent was known.
Compounds. The drugs and investigational agents: cirtuvivint (SM08502; NSC835563), CC-671 (NSC850746), vemurafenib (NSC761431), tapotoclax (NSC804041), sotorasib (NSC818433), adagrasib (NSC831453), MRTX-1133 (NSC836407), BAY2416964 (NSC825713), copanlisib (NSC816437), inavolisib (NSC800729), abemaciclib (NSC768073), osimertinib (NSC779217), entinostat (NSC756642), eltanexor (KPT-8602, NSC794443), venetoclax (NSC766270), ceralasertib (NSC777638), bortezomib (NSC756655), olaparib (NSC753686), talazoparib (NSC767125), alisertib (NSC759677), peposertib (NSC802822), gemcitabine (NSC613327), 5-fluorouracil (NSC19893), SN-38 (NSC673596), oxaliplatin (NSC266046), paclitaxel (NSC125973), and doxorubicin (NSC123127), were obtained from the National Cancer Institute (NCI) Developmental Therapeutics Program Chemical Repository. The FDA-approved anticancer drug set is available from the Developmental Therapeutics Program at https://dtp.cancer.gov/organization/dscb/obtaining/available plates.htm. […] The stock solutions were prepared in dimethyl sulfoxide (DMSO, Sigma-Aldrich, St. Louis, MO, cat. D2650), except for the platinum complexes which were prepared in saline (Quality Biological, Gaithersburg, MD, cat. 114-055-101), at 800-fold the tested concentration and stored at -70 degrees C prior to their use. All drugs and investigational agents were tested over a range starting from a high concentration at or near the clinical Cmax and decreasing in half-log increments. If the clinical Cmax for an agent had not been determined, the highest concentration tested was 10 microM.
Cell Culture. All cells were maintained in an incubator at 37 degrees C and 5% CO2 with 95% humidity. The PDC lines were cultured according to standard operating procedures established by the NCI PDMR. Briefly, all PDCs were thawed and cultured in Matrigel-coated flasks prepared with a working solution of 1X Ham's F-12 nutrient mix, without supplementation (Invitrogen, Waltham, MA, cat. 11765054), 100 U/mL penicillin-streptomycin (Invitrogen, cat. 15140122), and 2.5% Matrigel (Corning Inc., Corning, NY, cat. 354248) for the first three passages. The 947758-054-R-J2-PDC line was cultured in 6B/Colon 1A media, which includes advanced DMEM/F-12 (Thermo Fisher Scientific, cat. 12634028), 10 mM HEPES (Thermo Fisher Scientific, cat. 15630080), 1X GlutaMAX supplement (Thermo Fisher Scientific, cat. 35050061), 0.1 mg/mL primocin (InvivoGen, cat. ant-pm-2), 10% defined fetal bovine serum, heat inactivated (HyClone Laboratories Inc., cat. SH30070.03HI), 1.25 mM N-Acetyl-L-cysteine (Sigma-Aldrich, cat. A9165), 10 mM nicotinamide (Sigma-Aldrich, cat. N0636), 1X B-27 supplement (Thermo Fisher Scientific, cat. 17504044), 1X N-2 supplement (Thermo Fisher Scientific, cat. 17502048), and 10 microM Y-27632 dihydrochloride (Tocris Bioscience, cat. 1254). The 876862-298-R-J1-PDC was cultured in 6E media, which includes all 6B/Colon 1A media components plus 50% L-WRN conditioned media (ATCC, cat. CRL-3276), 50 ng/mL recombinant human EGF recombinant protein (hEGF; Thermo Fisher Scientific, cat. PHG0311), 10 ng/mL recombinant human fibroblast growth factor 10 (hGFG-10; PeproTech, cat. 100-26), 1 ng/mL recombinant human fibroblast growth factor 2 (hFGF-2; PeproTech, cat. 100-18B), and 1 µM prostaglandin E2 (PGE2; Tocris, cat. 2296). The 227483-062-R1-J1-PDC line was cultured in Panc media, containing all 6E components except hFGF-2, with the addition of 500 nM SB-431542 (Selleckchem, cat. S1067) and 10 nM gastrin (Tocris, cat. 3006). […]

[1] = curve of first compound, second compound 0.0316 µM
[2] = curve of first compound, second compound 0.1 µM
[3] = curve of first compound, second compound 0.316 µM
[4] = curve of first compound, second compound 1 µM
[5] = curve of first compound, second compound 3.16 µM
[6] = curve of first compound, second compound 10 µM
[7] = second compound 0.0316 µM, first compound 0.0316 µM
[8] = second compound 0.0316 µM, first compound 0.1 µM
[9] = second compound 0.0316 µM, first compound 0.316 µM
[10] = second compound 0.0316 µM, first compound 1 µM
[11] = second compound 0.0316 µM, first compound 3.16 µM
[12] = second compound 0.0316 µM, first compound 10 µM
[13] = second compound 0.1 µM, first compound 0.0316 µM
[14] = second compound 0.1 µM, first compound 0.1 µM
[15] = second compound 0.1 µM, first compound 0.316 µM
[16] = second compound 0.1 µM, first compound 1 µM
[17] = second compound 0.1 µM, first compound 3.16 µM
[18] = second compound 0.1 µM, first compound 10 µM
[19] = second compound 0.316 µM, first compound 0.0316 µM
[20] = second compound 0.316 µM, first compound 0.1 µM
[21] = second compound 0.316 µM, first compound 0.316 µM
[22] = second compound 0.316 µM, first compound 1 µM
[23] = second compound 0.316 µM, first compound 3.16 µM
[24] = second compound 0.316 µM, first compound 10 µM
[25] = second compound 1 µM, first compound 0.0316 µM
[26] = second compound 1 µM, first compound 0.1 µM
[27] = second compound 1 µM, first compound 0.316 µM
[28] = second compound 1 µM, first compound 1 µM
[29] = second compound 1 µM, first compound 3.16 µM
[30] = second compound 1 µM, first compound 10 µM
[31] = second compound 3.16 µM, first compound 0.0316 µM
[32] = second compound 3.16 µM, first compound 0.1 µM
[33] = second compound 3.16 µM, first compound 0.316 µM
[34] = second compound 3.16 µM, first compound 1 µM
[35] = second compound 3.16 µM, first compound 3.16 µM
[36] = second compound 3.16 µM, first compound 10 µM
[37] = second compound 10 µM, first compound 0.0316 µM
[38] = second compound 10 µM, first compound 0.1 µM
[39] = second compound 10 µM, first compound 0.316 µM
[40] = second compound 10 µM, first compound 1 µM
[41] = second compound 10 µM, first compound 3.16 µM
[42] = second compound 10 µM, first compound 10 µM
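Also: spheroids exposed to agents for seven days before readout.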
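For viability, T/C in this document: 100% = DMSO vehicle control viability.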

`CC(=O)O[C@H]1C(=O)[C@@]2(C)[C@H]([C@H](OC(=O)c3ccccc3)[C@]3(O)C[C@H](OC(=O)[C@H](O)[C@@H](NC(=O)c4ccccc4)c4ccccc4)C(C)=C1C3(C)C)[C@]1(OC(C)=O)CO[C@@H]1C[C@@H]2O` + CN1CCN(c2cc(C(=O)Nc3cc4cc(-c5cnn(C)c5)ccc4cn3)ccn2)CC1 was tested, and the IC50 [1] was less than 31.6 nM, the IC50 [2] was less than 31.6 nM and the IC50 [3] was less than 31.6 nM. It also gave an IC50 [4] of less than 31.6 nM, an IC50 [5] of less than 31.6 nM and an IC50 [6] of less than 31.6 nM. It also gave a viability, T/C [7] of 39.9%, a viability, T/C [8] of 34.4% and a viability, T/C [9] of 38%. It also gave a viability, T/C [10] of 41%, a viability, T/C [11] of 41.6% and a viability, T/C [12] of 54%. For the same compound, the viability, T/C [13] was 37.5%, the viability, T/C [14] was 33.4% and the viability, T/C [15] was 39.5%. The viability, T/C [16] was 42.7%, the viability, T/C [17] was 47.2% and the viability, T/C [18] was 67.3%. The viability, T/C [19] was 33.2%, the viability, T/C [20] was 41.9% and the viability, T/C [21] was 41.7%. It also gave a viability, T/C [22] of 41%, a viability, T/C [23] of 33.7% and a viability, T/C [24] of 49.4%. The viability, T/C [25] was 4.9%, the viability, T/C [26] was 5.86% and the viability, T/C [27] was 4.18%. The viability, T/C [28] was 3.31%, the viability, T/C [29] was 3.36% and the viability, T/C [30] was 4.26%. The viability, T/C [31] was 5.69%, the viability, T/C [32] was 4.99% and the viability, T/C [33] was 6.92%. It also gave a viability, T/C [34] of 3.95%, a viability, T/C [35] of 5.22% and a viability, T/C [36] of 3.46%. It also gave a viability, T/C [37] of 1.88%, a viability, T/C [38] of 4.8% and a viability, T/C [39] of 3.63%. For the same compound, the viability, T/C [40] was 4.24%, the viability, T/C [41] was 3.42% and the viability, T/C [42] was 1.77%.

For `CCN1CCN(Cc2ccc(Nc3ncc(F)c(-c4cc(F)c5nc(C)n(C(C)C)c5c4)n3)nc2)CC1`, the viability, T/C (compound 0.00316 µM) was 86.6% and 89.6%, the viability, T/C (compound 0.01 µM) was 81.3% and 70% and the viability, T/C (compound 0.0316 µM) was 73.7% and 72.2%. The viability, T/C (compound 0.1 µM) was 70.1% and 68.2%, the viability, T/C (compound 0.316 µM) was 105% and 79.5% and the viability, T/C (compound 1 µM) was 182% and 142%. The IC50 (curve of compound) was greater than 1000 nM.

For `COc1cccc2c1C(=O)c1c(O)c3c(c(O)c1C2=O)CC(O)(C(=O)CO)CC3OC1CC(N)C(O)C(C)O1` (stereo unspecified) + CN1CCN(c2cc(C(=O)Nc3cc4cc(-c5cnn(C)c5)ccc4cn3)ccn2)CC1, the IC50 [1] was 658 nM, the IC50 [2] was 567 nM and the IC50 [3] was less than 31.6 nM. It also gave an IC50 [4] of less than 31.6 nM, an IC50 [5] of less than 31.6 nM and an IC50 [6] of less than 31.6 nM. It also gave a viability, T/C [7] of 79.8%, a viability, T/C [8] of 64.6% and a viability, T/C [9] of 114%. For the same compound, the viability, T/C [10] was 29.3%, the viability, T/C [11] was 9.76% and the viability, T/C [12] was 6.19%. The viability, T/C [13] was 69.3%, the viability, T/C [14] was 85.4% and the viability, T/C [15] was 96.8%. For the same compound, the viability, T/C [16] was 17.1%, the viability, T/C [17] was 11.4% and the viability, T/C [18] was 6.38%. The viability, T/C [19] was 36.8%, the viability, T/C [20] was 58% and the viability, T/C [21] was 15%. For the same compound, the viability, T/C [22] was 4.91%, the viability, T/C [23] was 9.87% and the viability, T/C [24] was 7.68%. It also gave a viability, T/C [25] of 7.46%, a viability, T/C [26] of 5.6% and a viability, T/C [27] of 6.96%. The viability, T/C [28] was 8.8%, the viability, T/C [29] was 7.92% and the viability, T/C [30] was 4.27%. It also gave a viability, T/C [31] of 10.7%, a viability, T/C [32] of 6.4% and a viability, T/C [33] of 4.58%. For the same compound, the viability, T/C [34] was 8.38%, the viability, T/C [35] was 7.51% and the viability, T/C [36] was 3.19%. The viability, T/C [37] was 2.99%, the viability, T/C [38] was 3.91% and the viability, T/C [39] was 1.4%. For the same compound, the viability, T/C [40] was 7.4%, the viability, T/C [41] was 3.49% and the viability, T/C [42] was 0.29%.
